pIC50: −log10 of the molar value.
Experiments:
mTORC1 (mTOR/GbL/Raptor) = mTORC1 (mTOR/GbL/Raptor) (Homo sapiens, UniProt P42345); test: mTOR/GbL/Raptor (mTORC1) ELISA Assay; format: biochemical; settings: 0.2 nM mTORC1, 10 μM ATP, 50 nM NHis-tagged 4E-BP1; phosphorylation of 4E-BP1; read-out: IC50
How it was run: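 mTORC1 (0.2 nM) phosphorylated NHis-tagged 4E-BP1 (50 nM) with 10 μM ATP in 20 mM Hepes pH 7.2, 10 mM MnCl2, for 120 min at ambient temperature. Product was captured on Ni-chelate plates and detected with anti-phospho-4E-BP1 plus HRP secondary antibody by chemiluminescence.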

PI3Kα = PI3Kα (Homo sapiens, UniProt P42336); test: PI3K Biochemical Assays (ATP consumption, luciferase-luciferin chemiluminescence); settings: PI3Kα 1.5 nM, ATP 1 μM, PIP2 10 μM; percent of ATP consumed
PI3Kα, sequence (P42336 whole entry): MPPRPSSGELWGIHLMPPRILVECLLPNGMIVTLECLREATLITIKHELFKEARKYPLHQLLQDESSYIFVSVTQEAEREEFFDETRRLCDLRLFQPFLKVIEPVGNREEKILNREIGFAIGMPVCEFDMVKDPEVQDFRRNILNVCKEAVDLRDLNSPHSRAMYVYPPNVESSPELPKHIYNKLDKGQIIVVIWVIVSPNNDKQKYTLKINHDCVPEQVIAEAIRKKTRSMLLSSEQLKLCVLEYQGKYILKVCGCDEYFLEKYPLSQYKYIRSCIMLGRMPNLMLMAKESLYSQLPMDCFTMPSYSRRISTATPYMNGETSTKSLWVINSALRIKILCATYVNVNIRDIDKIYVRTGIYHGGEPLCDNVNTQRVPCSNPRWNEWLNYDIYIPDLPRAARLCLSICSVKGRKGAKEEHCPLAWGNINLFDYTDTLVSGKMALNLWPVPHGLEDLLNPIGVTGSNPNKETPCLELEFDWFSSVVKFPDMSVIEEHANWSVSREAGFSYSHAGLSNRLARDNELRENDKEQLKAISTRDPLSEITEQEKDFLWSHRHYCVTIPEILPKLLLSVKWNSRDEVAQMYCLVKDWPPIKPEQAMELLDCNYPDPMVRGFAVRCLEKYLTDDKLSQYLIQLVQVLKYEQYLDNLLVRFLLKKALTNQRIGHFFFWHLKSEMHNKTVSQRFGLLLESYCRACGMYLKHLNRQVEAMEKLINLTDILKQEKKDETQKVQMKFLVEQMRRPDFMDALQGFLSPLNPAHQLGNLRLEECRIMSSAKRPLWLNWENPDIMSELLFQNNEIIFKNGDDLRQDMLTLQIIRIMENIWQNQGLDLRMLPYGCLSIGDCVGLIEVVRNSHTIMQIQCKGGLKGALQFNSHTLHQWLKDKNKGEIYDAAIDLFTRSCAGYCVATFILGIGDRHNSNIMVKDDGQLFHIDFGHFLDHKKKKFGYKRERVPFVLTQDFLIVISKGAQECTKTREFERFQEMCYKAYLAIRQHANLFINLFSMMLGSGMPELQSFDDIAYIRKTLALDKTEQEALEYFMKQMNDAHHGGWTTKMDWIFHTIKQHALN
PI3Kα, sequence (P27986 whole entry partner): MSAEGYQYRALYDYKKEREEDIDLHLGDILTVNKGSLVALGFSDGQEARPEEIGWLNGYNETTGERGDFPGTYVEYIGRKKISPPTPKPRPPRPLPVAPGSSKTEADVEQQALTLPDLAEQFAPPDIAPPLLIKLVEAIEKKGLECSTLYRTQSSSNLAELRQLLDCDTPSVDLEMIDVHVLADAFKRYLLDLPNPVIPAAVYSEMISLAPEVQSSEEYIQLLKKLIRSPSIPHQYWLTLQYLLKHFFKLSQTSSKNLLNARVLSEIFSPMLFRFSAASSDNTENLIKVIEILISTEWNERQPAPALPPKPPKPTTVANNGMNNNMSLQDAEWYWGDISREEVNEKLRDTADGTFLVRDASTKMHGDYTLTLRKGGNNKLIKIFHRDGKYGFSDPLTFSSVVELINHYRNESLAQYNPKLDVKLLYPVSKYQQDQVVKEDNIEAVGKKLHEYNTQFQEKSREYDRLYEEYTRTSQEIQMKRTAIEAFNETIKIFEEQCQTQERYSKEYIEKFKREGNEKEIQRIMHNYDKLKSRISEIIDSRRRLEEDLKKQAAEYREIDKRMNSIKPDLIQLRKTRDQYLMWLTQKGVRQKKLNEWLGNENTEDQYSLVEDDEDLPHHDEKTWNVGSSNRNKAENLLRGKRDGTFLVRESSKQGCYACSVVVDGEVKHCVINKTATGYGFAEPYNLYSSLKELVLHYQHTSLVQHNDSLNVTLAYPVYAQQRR
How it was run: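 Kinase activity read as percent ATP consumed via luciferase-luciferin chemiluminescence. 1.5 nM enzyme, 1 μM ATP, 10 μM PIP2 in 50 mM Tris pH 7.5, 1 mM EGTA, 10 mM MgCl2, 1 mM DTT, 0.03% CHAPS; ~2 h at ambient temperature, ATP consumption kept to 40-60%.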

| Compound | pIC50 (mTORC1 (mTOR/GbL/Raptor)) | pIC50 (PI3Kα) |
| --- | --- | --- |
| Nc1nc2ncc(-c3ccc4c(c3)CN(C(=O)N3CCC(C(F)F)CC3)CCO4)cc2[nH]1 [Compound 43, 6-(4-{[4-(difluoromethyl)piperidin-1-yl]carbonyl}-2,3,4,5-tetrahydro-1,4-benzoxazepin-7-yl)-1H-imidazo[4,5-b]pyridin-2-amine] | ≥ 7.30 | 6.70 to 7.12 |
| O=C1CCN(C(=O)N2CCOc3ccc(-c4cnc5[nH]cnc5c4)cc3C2)C(c2cccc(F)c2)C1 (stereo not drawn) [Compound 52, 2-(3-fluorophenyl)-1-{[7-(3H-imidazo[4,5-b]pyridin-6-yl)-2,3-dihydro-1,4-benzoxazepin-4(5H)-yl]carbonyl}piperidin-4-one] | 6.60 to 7.30 | 6.30 to 6.70 |
| N#CC1CCN(C(=O)N2CCOc3ccc(-c4ccc(-c5ncc[nH]5)nc4)cc3C2)CC1 [Compound 63, 1-({7-[6-(1H-imidazol-2-yl)pyridin-3-yl]-2,3-dihydro-1,4-benzoxazepin-4(5H)-yl}carbonyl)piperidine-4-carbonitrile] | 6.60 to 7.30 | 6.00 to 6.30 |
| O=C1CCN(C(=O)N2CCOc3ccc(-c4ccc(-c5ncc[nH]5)cc4)cc3C2)[C@H](c2ccc(F)cc2)C1 [Compound 57, (2S)-2-(4-fluorophenyl)-1-({7-[4-(1H-imidazol-2-yl)phenyl]-2,3-dihydro-1,4-benzoxazepin-4(5H)-yl}carbonyl)piperidin-4-one] | ≥ 7.30 | ≥ 7.12 |
| COC(=O)Nc1nc2ccc(-c3ccc4c(c3)CN(C(=O)N3CCC(CF)CC3)CCO4)cc2[nH]1 [Compound 13, methyl [6-(4-{[4-(fluoromethyl)piperidin-1-yl]carbonyl}-2,3,4,5-tetrahydro-1,4-benzoxazepin-7-yl)-1H-benzimidazol-2-yl]carbamate] | 6.60 to 7.30 | 6.70 to 7.12 |
| CC1CCN(C(=O)N2CCOc3ccc(-c4cncs4)cc3C2)CC1 [Compound 8, 4-[(4-methylpiperidin-1-yl)carbonyl]-7-(1,3-thiazol-5-yl)-2,3,4,5-tetrahydro-1,4-benzoxazepine] | 6.15 to 6.60 | 5.52 to 6.00 |
| COC(=O)Nc1nc2ncc(-c3ccc4c(c3)CN(C(=O)N3CCC(C#N)CC3)CCO4)cc2[nH]1 [Compound 40, methyl (6-{4-[(4-cyanopiperidin-1-yl)carbonyl]-2,3,4,5-tetrahydro-1,4-benzoxazepin-7-yl}-1H-imidazo[4,5-b]pyridin-2-yl)carbamate] | 6.60 to 7.30 | 6.30 to 6.70 |
| COC(=O)Nc1nc2ccc(-c3ccc4c(c3)CN(C(=O)N3CCC(O)(CF)CC3)CCO4)cc2[nH]1 [Compound 15, methyl [6-(4-{[4-(fluoromethyl)-4-hydroxypiperidin-1-yl]carbonyl}-2,3,4,5-tetrahydro-1,4-benzoxazepin-7-yl)-1H-benzimidazol-2-yl]carbamate] | 6.60 to 7.30 | 6.30 to 6.70 |
| Cc1nc2ccc(-c3ccc4c(c3)CN(C(=O)N3CCCc5ccccc53)CCO4)cc2[nH]1 [Compound 85, 4-(3,4-dihydroquinolin-1(2H)-ylcarbonyl)-7-(2-methyl-1H-benzimidazol-6-yl)-2,3,4,5-tetrahydro-1,4-benzoxazepine] | 6.60 to 7.30 | 5.52 to 6.00 |
| COC(=O)Nc1nc2ccc(-c3ccc4c(c3)CN(C(=O)N3[C@@H]5CC[C@H]3C[C@](O)(C(F)(F)F)C5)CCO4)cc2[nH]1 [Compound 20, methyl [6-(4-{[3-(endo)-hydroxy-3-(trifluoromethyl)-8-azabicyclo[3.2.1]oct-8-yl]carbonyl}-2,3,4,5-tetrahydro-1,4-benzoxazepin-7-yl)-1H-benzimidazol-2-yl]carbamate] | ≥ 7.30 | ≥ 7.12 |

Results, then the molecule that gave them:

| pIC50 (mTORC1 (mTOR/GbL/Raptor)) | pIC50 (PI3Kα) | Compound |
| --- | --- | --- |
| ≥ 7.30 | 6.70 to 7.12 | Cc1nc2ccc(-c3ccc4c(c3)CN(C(=O)N3CCC(=O)CC3c3ccccc3)CCO4)cc2[nH]1 (stereo not drawn) [Compound 111, 1-{[7-(2-methyl-1H-benzimidazol-6-yl)-2,3-dihydro-1,4-benzoxazepin-4(5H)-yl]carbonyl}-2-phenylpiperidin-4-one] |
| 6.60 to 7.30 | 6.70 to 7.12 | Cc1nc2ccc(-c3ccc4c(c3)CN(C(=O)N3CCC(=O)CC3c3ccc(F)c(F)c3)CCO4)cc2[nH]1 (stereo not drawn) [Compound 121, 2-(3,4-difluorophenyl)-1-{[7-(2-methyl-1H-benzimidazol-6-yl)-2,3-dihydro-1,4-benzoxazepin-4(5H)-yl]carbonyl}piperidin-4-one] |
| ≥ 7.30 | ≥ 7.12 | Cc1nc2ccc(-c3ccc4c(c3)CN(C(=O)N3CCCCC3c3cc(F)cc(F)c3)CCO4)cc2[nH]1 (stereo not drawn) [Compound 130, 4-{[2-(3,5-difluorophenyl)piperidin-1-yl]carbonyl}-7-(2-methyl-1H-benzimidazol-6-yl)-2,3,4,5-tetrahydro-1,4-benzoxazepine] |
| 5.59 to 6.15 | 5.52 to 6.00 | Cc1nc2cc(-c3ccc4c(c3)CN(C(=O)N3CC[C@](C)(O)C[C@@H]3c3ccccc3)CCO4)ccc2[nH]1 (racemic) [Compound 134, (±)-(2R,4S)-4-methyl-1-{[7-(2-methyl-1H-benzimidazol-5-yl)-2,3-dihydro-1,4-benzoxazepin-4(5H)-yl]carbonyl}-2-phenylpiperidin-4-ol] |
| 6.60 to 7.30 | 5.52 to 6.00 | Cc1nc2ccc(-c3ccc4c(c3)CN(C(=O)N3CCC(c5ccccc5)CC3)CCO4)cc2[nH]1 [Compound 170, 7-(2-methyl-1H-benzimidazol-6-yl)-4-[(4-phenylpiperidin-1-yl)carbonyl]-2,3,4,5-tetrahydro-1,4-benzoxazepine] |
| ≥ 7.30 | 6.70 to 7.12 | Cc1nc2ccc(-c3ccc4c(c3)CN(C(=O)N3CCCCC3c3ccccc3)CCO4)cc2[nH]1 (stereo not drawn) [Compound 96, 7-(2-methyl-1H-benzimidazol-6-yl)-4-[(2-phenylpiperidin-1-yl)carbonyl]-2,3,4,5-tetrahydro-1,4-benzoxazepine] |
| ≥ 7.30 | 6.70 to 7.12 | Cc1nc2ccc(-c3ccc4c(c3)CN(C(=O)N3CCCCC3c3ccc(C)c(F)c3)CCO4)cc2[nH]1 (stereo not drawn) [Compound 123, 4-{[2-(3-fluoro-4-methylphenyl)piperidin-1-yl]carbonyl}-7-(2-methyl-1H-benzimidazol-6-yl)-2,3,4,5-tetrahydro-1,4-benzoxazepine] |
| ≥ 7.30 | 6.70 to 7.12 | Cc1nc2ccc(-c3ccc4c(c3)CN(C(=O)N3CCCCC3c3cc(F)cc(Cl)c3)CCO4)cc2[nH]1 (stereo not drawn) [Compound 116, 4-{[2-(3-chloro-5-fluorophenyl)piperidin-1-yl]carbonyl}-7-(2-methyl-1H-benzimidazol-6-yl)-2,3,4,5-tetrahydro-1,4-benzoxazepine] |
| 6.60 to 7.30 | 6.00 to 6.30 | Cc1nc2ccc(-c3ccc4c(c3)CN(C(=O)N3CCC(c5ccccc5)C3)CCO4)cc2[nH]1 (stereo not drawn) [Compound 98, 7-(2-methyl-1H-benzimidazol-6-yl)-4-[(3-phenylpyrrolidin-1-yl)carbonyl]-2,3,4,5-tetrahydro-1,4-benzoxazepine] |
| 6.15 to 6.60 | 6.30 to 6.70 | Cc1nc2ccc(-c3ccc4c(c3)CN(C(=O)N3CCCCC3)CCO4)cc2[nH]1 [Compound 86, 7-(2-methyl-1H-benzimidazol-6-yl)-4-(piperidin-1-ylcarbonyl)-2,3,4,5-tetrahydro-1,4-benzoxazepine] |
| 6.15 to 6.60 | 6.00 to 6.30 | Cc1nc2ccc(-c3ccc4c(c3)CN(C(=O)N3CCCCCC3c3ccccc3)CCO4)cc2[nH]1 (stereo not drawn) [Compound 122, 7-(2-methyl-1H-benzimidazol-5-yl)-4-[(2-phenylazepan-1-yl)carbonyl]-2,3,4,5-tetrahydro-1,4-benzoxazepine] |
